According to patent publication US20200017495A1, “NOVEL HETEROCYCLIC COMPOUNDS AND THEIR USE IN PREVENTING OR TREATING BACTERIAL INFECTIONS” (priority 2017, published 2020):
Where two headings read alike, the source gives them in different places.

Assays:
[1] = test system: Citrobacter murliniae (CMU) isolates; assay: MIC of compounds alone and combined with antibacterials, broth microdilution (CLSI); assay type: cell-based; details: Citrobacter murliniae; CMU 210102; alone; read-out: MIC
Procedure, shortened: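 CLSI broth microdilution: log-phase isolates at 5.10^5 CFU/mL in cation-adjusted Mueller-Hinton broth were exposed to compound alone or in combination with an antibacterial, 16-20 h at 35° C in ambient air. MIC is the lowest concentration preventing visible growth, including the antibacterial MIC at each compound concentration.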

[2] = molecular target: KPC-2 (Klebsiella pneumoniae, UniProt Q9F663); assay: β-lactamase inhibitory activity, IC50 (nitrocefin hydrolysis); assay type: biochemical
Protocol: (§2) Method 1: β-Lactamase Inhibitory Activity, Determination of IC50 (Table 1)
(§3) Enzymes were cloned in E. coli expression vector, expressed and purified in house using classical procedures. […] After 30 min of pre-incubation at room temperature, 15 μL of NCF (100 μM final) were finally added in each well. […] Enzyme activity was obtained by subtracting the background from the final signal, and was converted to enzyme inhibition using non inhibited wells. IC50 curves were fitted to a classical Langmuir equilibrium model with Hill slope using XLFIT (IDBS).

[3] = molecular target: CTX-M-15 (Escherichia coli, UniProt Q9EXV5); assay: as above; assay type: biochemical
Protocol: as §2, §3

[4] = test system: Serratia marcescens (SMA) isolates; assay: MIC of compounds alone and combined with antibacterials, broth microdilution (CLSI); assay type: cell-based; details: Serratia marcescens, read-out: MIC
Procedure, shortened: (§1)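 First, log-phase suspensions are brought to 5.10^5 CFU/mL final in ca-MHB; plates then incubate 16-20 h at 35° C in air. Growth is judged visually, giving the compound MIC alone and the antibacterial MIC at each compound concentration.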

[5] = test system: Enterobacter aerogenes (EAE) isolates; assay: as above; assay type: cell-based; details: Klebsiella aerogenes, alone, read-out: MIC
Procedure, shortened: as §1

[6] = test system: Enterobacter cloacae (ECL) isolates; assay: as above; assay type: cell-based; details: Enterobacter cloacae, read-out: MIC
Procedure, shortened: as §1

[7] = molecular target: SAU PC1 (Staphylococcus aureus, UniProt P00807); assay: β-lactamase inhibitory activity, IC50 (nitrocefin hydrolysis); assay type: biochemical, S. aureus
Protocol: as §2, §3

[8] = molecular target: P99 ampC (Enterobacter cloacae, UniProt P05364); assay: as above; assay type: biochemical
Protocol: as §2, §3

[9] = test system: Proteus mirabilis (PMI) isolates; assay: microbe, parasite or virus in culture; assay type: cell-based; details: Proteus mirabilis, read-out: MIC
Procedure, shortened: as §1

[10] = molecular target: OXA-58 (Acinetobacter baumannii, UniProt Q2TR58); assay: β-lactamase inhibitory activity, IC50 (nitrocefin hydrolysis); assay type: biochemical
Protocol: as §3

[11] = molecular target: OXA-11 (Pseudomonas aeruginosa, UniProt Q06778); assay: as above; assay type: biochemical
Protocol: as §3

[12] = molecular target: OXA-15 (Pseudomonas aeruginosa, UniProt Q51574); assay: as above; assay type: biochemical
Protocol: as §3

[13] = strain SMA UFR140, compound alone
[14] = strain SMA UFR238, compound alone
[15] = strain ECL UFR192, compound alone
[16] = strain ECL UFR193, compound alone
[17] = strain ECL UFR194, compound alone
[18] = strain ECL UFR195, compound alone
[19] = strain ECL UFR196, compound alone
[20] = strain ECL UFR197, compound alone
[21] = strain ECL UFR198, compound alone
[22] = strain ECL UFR203, compound alone
[23] = strain ECL UFR214, compound alone
[24] = strain ECL UFR252PT, compound alone
[25] = strain PMI UFR132, compound alone

Sequence of CTX-M-15 (Q9EXV5 entry or part of it): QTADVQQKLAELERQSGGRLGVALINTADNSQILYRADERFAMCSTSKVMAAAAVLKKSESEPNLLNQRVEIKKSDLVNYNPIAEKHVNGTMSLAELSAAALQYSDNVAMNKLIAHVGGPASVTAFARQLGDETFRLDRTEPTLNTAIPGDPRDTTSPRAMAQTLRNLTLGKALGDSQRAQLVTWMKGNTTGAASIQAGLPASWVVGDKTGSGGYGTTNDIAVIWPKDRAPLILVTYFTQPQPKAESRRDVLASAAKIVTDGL
Sequence of KPC-2 (Q9F663 25-293 limits assumed): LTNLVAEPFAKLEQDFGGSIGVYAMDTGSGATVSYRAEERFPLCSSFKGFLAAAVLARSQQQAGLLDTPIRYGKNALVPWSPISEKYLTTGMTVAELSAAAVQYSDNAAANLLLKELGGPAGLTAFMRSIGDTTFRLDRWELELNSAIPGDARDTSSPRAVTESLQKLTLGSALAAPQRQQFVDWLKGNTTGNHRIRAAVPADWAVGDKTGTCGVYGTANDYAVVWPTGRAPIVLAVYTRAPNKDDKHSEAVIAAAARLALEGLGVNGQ
Sequence of OXA-58 (Q2TR58 19-280): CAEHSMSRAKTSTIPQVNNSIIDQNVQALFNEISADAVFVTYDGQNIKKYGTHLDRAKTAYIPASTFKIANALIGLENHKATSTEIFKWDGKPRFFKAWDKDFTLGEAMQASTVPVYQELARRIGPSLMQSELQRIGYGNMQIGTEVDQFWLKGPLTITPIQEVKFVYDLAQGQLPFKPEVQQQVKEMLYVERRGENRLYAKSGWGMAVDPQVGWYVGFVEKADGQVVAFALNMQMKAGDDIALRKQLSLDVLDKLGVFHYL
Sequence of SAU PC1 (P00807 25-281): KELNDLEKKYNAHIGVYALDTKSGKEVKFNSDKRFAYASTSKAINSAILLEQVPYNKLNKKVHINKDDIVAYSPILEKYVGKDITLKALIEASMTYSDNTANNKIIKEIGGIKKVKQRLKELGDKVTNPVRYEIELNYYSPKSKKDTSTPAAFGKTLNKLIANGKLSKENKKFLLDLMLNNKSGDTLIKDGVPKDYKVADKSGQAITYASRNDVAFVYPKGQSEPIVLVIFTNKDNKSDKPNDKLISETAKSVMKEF
Sequence of P99 ampC (P05364 21-381): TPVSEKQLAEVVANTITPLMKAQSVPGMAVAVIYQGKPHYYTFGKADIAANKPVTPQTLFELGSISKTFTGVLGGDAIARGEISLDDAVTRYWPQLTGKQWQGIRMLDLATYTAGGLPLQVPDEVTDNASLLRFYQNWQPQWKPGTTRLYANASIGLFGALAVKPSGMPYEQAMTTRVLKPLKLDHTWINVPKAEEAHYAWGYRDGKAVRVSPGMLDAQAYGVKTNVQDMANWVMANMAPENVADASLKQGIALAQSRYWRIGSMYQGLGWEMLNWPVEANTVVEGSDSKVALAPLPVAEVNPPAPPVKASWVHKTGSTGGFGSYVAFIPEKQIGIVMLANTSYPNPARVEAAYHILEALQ
Sequence of OXA-11 (Q06778 21-266): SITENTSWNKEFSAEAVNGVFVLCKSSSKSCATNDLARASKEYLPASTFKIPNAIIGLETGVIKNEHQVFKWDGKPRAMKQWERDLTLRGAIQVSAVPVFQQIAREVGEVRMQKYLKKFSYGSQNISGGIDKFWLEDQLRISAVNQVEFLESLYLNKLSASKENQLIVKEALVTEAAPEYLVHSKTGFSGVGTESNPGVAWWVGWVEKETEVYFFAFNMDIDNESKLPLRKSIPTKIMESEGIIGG
Sequence of OXA-15 (Q51574 22-275): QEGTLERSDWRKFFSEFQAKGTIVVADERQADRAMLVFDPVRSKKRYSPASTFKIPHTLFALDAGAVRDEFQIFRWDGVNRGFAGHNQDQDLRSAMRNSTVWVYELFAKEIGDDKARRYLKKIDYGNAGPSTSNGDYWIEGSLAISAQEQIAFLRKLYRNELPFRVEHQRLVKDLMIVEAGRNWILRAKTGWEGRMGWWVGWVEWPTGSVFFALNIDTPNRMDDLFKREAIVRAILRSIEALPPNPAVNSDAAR

Compound: O=C1N2CC(c3ncco3)=CC(C2)N1OC(F)(F)C(=O)[O-].[Li+] (stereo not drawn) [AF2]
- MIC [1]: 16 mg/L
- IC50 [2]: 0.069 µM
- IC50 [3]: 0.0015 µM
- MIC ([4]; SMA UFR30, alone): 16 mg/L
- MIC ([4]; SMA UFR134, alone): 16 mg/L
- MIC ([4]; SMA UFR135, alone): > 32 mg/L
- MIC ([4]; SMA UFR136, alone): > 32 mg/L
- MIC ([4]; SMA UFR137, alone): 16 mg/L
- MIC ([4]; SMA UFR138, alone): 16 mg/L
- MIC ([4]; SMA UFR139, alone): > 32 mg/L
- MIC ([4]; SMA UFR141, alone): > 32 mg/L
- MIC ([4]; SMA UFR142, alone): 32 mg/L
- MIC ([4]; SMA UFR143, alone): 32 mg/L
- MIC ([4]; SMA UFR239, alone): 32 mg/L
- MIC [4, 13]: > 32 mg/L
- MIC [4, 14]: 16 mg/L
- MIC ([5]; EAE 49469): 8 mg/L
- MIC ([5]; EAE 200261): 16 mg/L
- MIC ([5]; EAE UFR199): 16 mg/L
- MIC ([5]; EAE UFR201): 4 mg/L
- MIC ([5]; EAE UFR202): 32 mg/L
- MIC ([5]; EAE UFR207): 4 mg/L
- MIC ([5]; EAE UFR213): 16 mg/L
- MIC ([6]; ECL 190408, alone): 4 mg/L
- MIC ([6]; ECL HAN, alone): 32 mg/L
- MIC ([6]; ECL NEM146383, alone): 32 mg/L
- MIC ([6]; ECL P99, alone): 8 mg/L
- MIC ([6]; ECL UFR12, alone): 16 mg/L
- MIC ([6]; ECL UFR13, alone): 16 mg/L
- MIC ([6]; ECL UFR14, alone): 16 mg/L
- MIC ([6]; ECL UFR38, alone): 8 mg/L
- MIC ([6]; ECL UFR51, alone): 8 mg/L
- MIC ([6]; ECL UFR60, alone): 16 mg/L
- MIC ([6]; ECL UFR70, alone): 8 mg/L
- MIC ([6]; ECL UFR84, alone): 32 mg/L
- MIC ([6]; ECL UFR85, alone): 8 mg/L
- MIC ([6]; ECL UFR200, alone): 32 mg/L
- MIC [6, 15]: 16 mg/L
- MIC [6, 16]: 16 mg/L
- MIC [6, 17]: 8 mg/L
- MIC [6, 18]: 16 mg/L
- MIC [6, 19]: 16 mg/L
- MIC [6, 20]: 8 mg/L
- MIC [6, 21]: 32 mg/L
- MIC [6, 22]: 32 mg/L
- MIC [6, 23]: 32 mg/L
- MIC [6, 24]: > 32 mg/L
- IC50 [7]: 0.22 µM
- IC50 [8]: 0.73 µM
- MIC ([9]; PMI UFR128, alone): 8 mg/L
- MIC ([9]; PMI UFR129, alone): 4 mg/L
- MIC ([9]; PMI UFR130, alone): 4 mg/L
- MIC [9, 25]: 4 mg/L
- IC50 [10]: 0.58 µM
- IC50 [11]: 0.084 µM
- IC50 [12]: 0.14 µM

Compound: O=C1N2CC(n3cccn3)=CC(C2)N1OC(F)(F)C(=O)[O-].[Li+] (stereo not drawn) [AF3]
- MIC [1]: 16 mg/L
- IC50 [2]: 0.077 µM
- IC50 [3]: 0.00066 µM
- MIC ([4]; SMA UFR30, alone): 8 mg/L
- MIC ([4]; SMA UFR134, alone): 32 mg/L
- MIC ([4]; SMA UFR135, alone): > 32 mg/L
- MIC ([4]; SMA UFR136, alone): > 32 mg/L
- MIC ([4]; SMA UFR137, alone): 32 mg/L
- MIC ([4]; SMA UFR138, alone): 16 mg/L
- MIC ([4]; SMA UFR139, alone): 32 mg/L
- MIC ([4]; SMA UFR141, alone): 32 mg/L
- MIC ([4]; SMA UFR142, alone): > 32 mg/L
- MIC ([4]; SMA UFR143, alone): 32 mg/L
- MIC ([4]; SMA UFR239, alone): 16 mg/L
- MIC [4, 13]: > 32 mg/L
- MIC [4, 14]: 32 mg/L
- MIC ([5]; EAE 49469): 8 mg/L
- MIC ([5]; EAE 200261): 8 mg/L
- MIC ([5]; EAE UFR199): 16 mg/L
- MIC ([5]; EAE UFR201): 8 mg/L
- MIC ([5]; EAE UFR202): 32 mg/L
- MIC ([5]; EAE UFR207): 8 mg/L
- MIC ([5]; EAE UFR213): 16 mg/L
- MIC ([6]; ECL 2185D, alone): 32 mg/L
- MIC ([6]; ECL 190310, alone): 32 mg/L
- MIC ([6]; ECL 190408, alone): 4 mg/L
- MIC ([6]; ECL 200138, alone): 16 mg/L
- MIC ([6]; ECL 200322, alone): 8 mg/L
- MIC ([6]; ECL 260033, alone): 16 mg/L
- MIC ([6]; ECL 260253, alone): 32 mg/L
- MIC ([6]; ECL 260323, alone): 16 mg/L
- MIC ([6]; ECL 260508, alone): 8 mg/L
- MIC ([6]; ECL HAN, alone): 32 mg/L
- MIC ([6]; ECL NEM146383, alone): 16 mg/L
- MIC ([6]; ECL P99, alone): 16 mg/L
- MIC ([6]; ECL UFR12, alone): 8 mg/L
- MIC ([6]; ECL UFR13, alone): 32 mg/L
- MIC ([6]; ECL UFR14, alone): 32 mg/L
- MIC ([6]; ECL UFR38, alone): 8 mg/L
- MIC ([6]; ECL UFR51, alone): 8 mg/L
- MIC ([6]; ECL UFR60, alone): 16 mg/L
- MIC ([6]; ECL UFR70, alone): 8 mg/L
- MIC ([6]; ECL UFR84, alone): 32 mg/L
- MIC ([6]; ECL UFR85, alone): 16 mg/L
- MIC ([6]; ECL UFR200, alone): 16 mg/L
- MIC [6, 15]: 32 mg/L
- MIC [6, 16]: 16 mg/L
- MIC [6, 17]: 16 mg/L
- MIC [6, 18]: 16 mg/L
- MIC [6, 19]: 16 mg/L
- MIC [6, 20]: 16 mg/L
- MIC [6, 21]: 32 mg/L
- MIC [6, 22]: 32 mg/L
- MIC [6, 23]: > 32 mg/L
- MIC [6, 24]: > 32 mg/L
- IC50 [7]: 0.12 µM
- IC50 [8]: 0.27 µM
- MIC ([9]; PMI UFR82, alone): 4 mg/L
- MIC ([9]; PMI UFR126, alone): 4 mg/L
- MIC ([9]; PMI UFR127, alone): 8 mg/L
- MIC ([9]; PMI UFR128, alone): 4 mg/L
- MIC ([9]; PMI UFR129, alone): 4 mg/L
- MIC ([9]; PMI UFR130, alone): 4 mg/L
- MIC ([9]; PMI UFR133, alone): 4 mg/L
- MIC ([9]; PMI UFR237, alone): 8 mg/L
- MIC ([9]; strain PMI UFR131, compound alone): 4 mg/L
- MIC [9, 25]: 8 mg/L
- IC50 [10]: 1 µM
- IC50 [11]: 0.04 µM
- IC50 [12]: 0.12 µM
